Molecules are shown by their SMILES. Values after ≈ are worked out from the molar mass of the structure shown.

The test system of one data set is Escherichia coli NIHJ. The data set is described as follows: Minimal inhibitory concentration, standard agar dilution method of the Japan Society of Chemotherapy. The data set is classed as cell-based. Here is the method: (§1) Minimal inhibitory concentration (MIC, μg/ml) of certain compounds obtained in the above examples was determined in accordance with the standard agar dilution method of the Japan Society of Chemotherapy.

Data set [1] relates to Klebsiella pneumoniae EK-6. Described as above. In kind it is cell-based. As to conditions: EK6. As for the experimental part: as §1
A further data set concerns Proteus morganii EP-14. The data set is described as above. The data set is classed as cell-based. As to conditions: Morganella morganii, EP14. As for the experimental part: as §1
Another data set has as its system Proteus vulgaris E-18. The data set is described as above. The data set is classed as cell-based. As to conditions: E18, Proteus vulgaris E-18, lactamase-producing bacterium. As for the experimental part: as §1
In data set [2] the test system is Pseudomonas aeruginosa EP-174. The data set is described as above. In kind it is cell-based. As to conditions: EP174. Here is the method:
as §1

Data set [3] concerns Serratia marcescens ES-75. Described as above. As to conditions: ES75. In kind it is cell-based. As for the experimental part:
as §1

Data set [4] has as its system Staphylococcus aureus 209-P. The description is as above. The data set is classed as cell-based. As for the experimental part: as §1
The nature of data set [5]: Acute toxicity, LD50 (mouse, oral administration). As to conditions: in vivo. From the text:
With reference to the compounds of Example Nos. 2, 3 and 4, all their acute toxicity values [LD50 (mouse, oral administration)] amount to above 4 g/kg.

In the case of `NC(=O)OCC1=C(C(=O)O)N2C(=O)[C@@H](NC(=O)[C@H](NC(=O)c3coc4cc(O)c(O)cc4c3=O)c3ccc(O)cc3)[C@H]2SC1` [Example 2, 7β-[D-2-(6,7-Dihydroxychromon-3-carboxamido)-2-(4-hydroxyphenyl)acetamido]-3-carbamoyloxymethyl-3-cephem-4-carboxylic acid], the MIC is 0.8 µg/mL (≈ 1.28 µM) in the data set on Escherichia coli NIHJ; not above 0.05 µg/mL in data set [1]; 25 µg/mL (≈ 39.9 µM) with Proteus morganii EP-14; more than 100 µg/mL against Proteus vulgaris E-18; 0.4 µg/mL (≈ 0.638 µM) in data set [2]; 0.8 µg/mL (≈ 1.28 µM) in data set [3]. Moreover, it took 3.13 µg/mL (≈ 5 µM) to inhibit growth in data set [4] (MIC). This compound also showed a median lethal dose (LD50) in data set [5] of more than 4000 mg/kg.
Regarding `CO[C@@]1(NC(=O)[C@H](NC(=O)c2coc3cc(O)c(O)cc3c2=O)c2ccc(O)cc2)C(=O)N2C(C(=O)O)=C(COC(=O)NC(=O)C(Cl)(Cl)Cl)CS[C@@H]21` [Example 3, 7β-[D-2-(6,7-Dihydroxychromon-3-carboxamido)-2-(4-hydroxyphenyl)acetamido]-7α-methoxy-3-trichloroacetylcarbamoyloxymethyl-3-cephem-4-carboxylic acid], the MIC with Escherichia coli NIHJ is 3.13 µg/mL (≈ 3.9 µM); in data set [1] it was not above 0.05 µg/mL; with Proteus morganii EP-14, 12.5 µg/mL (≈ 15.6 µM); against Proteus vulgaris E-18, 3.13 µg/mL (≈ 3.9 µM); in data set [2], 3.13 µg/mL (≈ 3.9 µM); in data set [3] it was 1.56 µg/mL (≈ 1.95 µM). The minimal inhibitory concentration (MIC) in data set [4] turned out to be 6.25 µg/mL (≈ 7.79 µM). This compound displayed an LD50 in data set [5] of more than 4000 mg/kg.
Consider `CO[C@@]1(NC(=O)[C@H](NC(=O)c2coc3cc(O)c(O)cc3c2=O)c2ccc(O)cc2)C(=O)N2C(C(=O)O)=C(COC(N)=O)CS[C@@H]21` [Example 4, 7β-[D-2-(6,7-Dihydroxychromon-3-carboxamido)-2-(4-hydroxyphenyl)acetamido]-7α-methoxy-3-carbamoyloxymethyl-3-cephem-4-carboxylic acid], for which the MIC was 1.56 µg/mL (≈ 2.38 µM) against Escherichia coli NIHJ; not above 0.05 µg/mL in data set [1]; 6.25 µg/mL (≈ 9.52 µM) in the data set on Proteus morganii EP-14; 0.8 µg/mL (≈ 1.22 µM) with Proteus vulgaris E-18; 1.56 µg/mL (≈ 2.38 µM) in data set [2]; 0.4 µg/mL (≈ 0.609 µM) in data set [3]. Also, the minimal inhibitory concentration (MIC) in data set [4] came out at 6.25 µg/mL (≈ 9.52 µM). In data set [5], this compound returned an LD50 of more than 4000 mg/kg.

The values are drawn from patent publication US4448775A, “3-Carbamoyloxymethylcephem derivatives, and antibacterial drugs containing same” (Eisai Co., Ltd., priority 1981, dated 1984).
